According to US20110152207A1, “USE OF VITAMIN D GLYCOSIDES AND SULFATES FOR TREATMENT OF DISEASE” (priority 2009, published 2011):
Marks after values point to notes of the source that are not given here.

Legend:
DU-145 cells = assay: DU-145 cell proliferation (CELLTITER BLUE); format: cell-based, human; conditions: for Proliferation index (Mean ± SEM): 4 days, control = 100
Protocol: LNCaP cells (ATCC # CRL-1740) are malignant prostate cancer cells originally obtained from a lymph node of a person whose prostatic cancer had metastasized to the lymph node. LNCaP cells were grown in tissue culture using RPMI-1640 media with 10% fetal bovine serum. Wells of two 48-well tissue culture plates were seeded with 5000 LNCaP cells/well. […] Half the media was replaced with fresh media with treatments on the third day of the treatment period. By day 6 of treatment, wells of control untreated cells were approximately 60% confluent. The live cell numbers in each well at the end of treatment were assessed using the “CELLTITER BLUE”-brand assay kit (Promega Corp., Madison, Wis.). The assay is based on the ability of living cells to convert a redox dye (resazurin) into a fluorescent end product (resorufin). […] A similar study was performed using a second human-derived prostatic cancer cell line known as DU-145 (ATCC# HTB-81). […] Exp. Med. Biol. 1995 375:53-63). The DU-145 cells were propagated in Eagle's Minimum Essential Medium with 10% fetal bovine serum. The cells were treated in culture for just 4 days, with half the media replaced with fresh media on day 3 of treatment. Cells were 40% confluent at the end of treatment.

LNCaP cells = assay: LNCaP cell proliferation (CELLTITER BLUE); format: cell-based, human; conditions: six days, control = 100
Protocol: LNCaP cells (ATCC # CRL-1740) are malignant prostate cancer cells originally obtained from a lymph node of a person whose prostatic cancer had metastasized to the lymph node. LNCaP cells were grown in tissue culture using RPMI-1640 media with 10% fetal bovine serum. Wells of two 48-well tissue culture plates were seeded with 5000 LNCaP cells/well. […] Half the media was replaced with fresh media with treatments on the third day of the treatment period. By day 6 of treatment, wells of control untreated cells were approximately 60% confluent. The live cell numbers in each well at the end of treatment were assessed using the “CELLTITER BLUE”-brand assay kit (Promega Corp., Madison, Wis.). The assay is based on the ability of living cells to convert a redox dye (resazurin) into a fluorescent end product (resorufin).

[1] = Plasma calcium in the DSS mouse model of IBD; format: in vivo; conditions: DSS mice
Text: In this example, β-gluc-1,25-D3 compounds, alone or in combination with 25-β-glucuronide-25-hydroxyvitamin D3 compounds (hereinafter β-gluc-25-D3) were incorporated into the diet of mice and compared to equimolar 1,25-D3 with respect to therapeutic effects on IBD and induction of calcemia. A standard mouse model of IBD comprising administering dextran sodium sulfate (DSS) to induce inflammation of the lower colon was used to study these effects. Vitamin D treatments were first initiated for 4 days. After 4 days, mice were fed DSS-water for 7 days, allowed one day to recover, and sacrificed. Colon length, plasma calcium, fecal blood score, and body weight were assayed. Colon length is a standard marker of intestinal inflammation in the literature, with shortened colon length being an indicator of inflammation. A 1-cm section of the mid-colon was removed, fixed in formalin, and stained with hematoxylin & eosin for microscopic histopathologic evaluation by a veterinary pathologist blinded to the treatments. Each tissue section received a score from 0 to 4 reflecting absence of lesion to severe, extensive lesion for each of three criteria: (1) the degree of erosion/ulceration of colon mucosa; (2) the degree of infiltration of the tissues by inflammatory cells; and (3) the degree of submucosal edema. The sum of the score of each of these criteria constitutes the histopathological score for the tissue with a zero score representing normal tissue based on all criteria, and the worst possible outcome being a score of 12.

Cyp24 = Cyp24 mRNA expression in colon of mice after a single oral dose; format: in vivo; conditions: 6 hrs; for increase in Cyp24 expression in the colon: relative to untreated mice
Protocol: Mice were decapitated 6 hrs later following light anesthesia under inhaled halothane. […] Tissue samples were flushed with ice-cold phosphate-buffered saline and immediately homogenized in 1 ml of TRIzol® reagent (Invitrogen Corp., Carlsbad, Calif.). Samples were then kept frozen at −86° C. prior to processing for RNA. For processing RNA, each TRIzol® homogenate was thawed at room temperature and 500 μl placed in a clean microfuge tube, mixed thoroughly with 100 μl chloroform for 15 sec and then centrifuged at 12,000×g for 15 min at 4° C. The upper aqueous phase was removed and mixed with 0.93 volumes of 75% EtOH. The mixture was then applied to an RNeasy spin column (Qiagen Inc., Germantown, Md.) and processed as described by the manufacturer with the exception that an additional wash with 2M NaCl/2 mM EDTA (pH 4.0) was included (Das et al. J Vet Diagn Invest. 2009; 21:771-778). RNA was eluted in 50 μl of water and the concentration obtained by UV spectrometry. One microgram of RNA was then used as a template for production of cDNA in a 20-μl reaction volume using random hexamers and Superscript III as described by the manufacturer (Invitrogen, Carlsbad, Calif.). Afterwards, samples were diluted to 100 μl final volume with TE buffer and stored at −20° C. prior to PCR analysis. Quantitative real-time RT-PCR was performed using a Stratagene Mx3005p cycler (Stratagene, La Jolla, Calif.) and PerfeCTa® SYBR® Green FastMix®, ROX reagent (Quanta Biosciences, Gaithersburg, Md.). Amplification of target cDNAs was accomplished with the following primers: Aliquots (8.3 ng) of cDNA were amplified under the following conditions: 95° C. for 30 sec, followed by 45 cycles of 95° C. for 1 sec and 57° C. for 30 sec. […] Oligonucleotides were obtained from Integrated DNA Technologies (Coralville, Iowa).

[2] = Hypercalcemic effect: plasma calcium in rats under continuous subcutaneous infusion; format: in vivo; conditions: for Plasma Calcium Mean ± SD: 12th day, in mg/dL (unit assumed); for Significantly greater than control? Duncan's Multiple Range Test: plasma calcium
Protocol: The pumps were filled aseptically with the appropriate dose of drug dissolved in propylene glycol. The pumps were surgically implanted under the skin on the dorsal neck and shoulder area aseptically. On the 12th day of infusion, rats were deeply anesthetized (isofluorane inhalation) and blood was collected by cardiac puncture for plasma calcium determination. The plasma calcium levels were determined by standard methods.

C=C1/C(=C\C=C2/CCC[C@]3(C)[C@@H]([C@H](C)CCCC(C)(C)O[C@@H]4O[C@H](C(=O)O)[C@@H](O)[C@H](O)[C@H]4O)CC[C@@H]23)C[C@@H](O)C[C@@H]1O [β-gluc-1,25-D3, 25-β-glucuronide-1,25-dihydroxyvitamin D3]
Proliferation index (Mean ± SEM) (DU-145 cells; DU-145, 20 nM): 90.3 ± 2.2
Proliferation index (Mean ± SEM) (DU-145 cells; DU-145, 100 nM): 88.7 ± 2.8
reducing cell proliferation versus native hormone (DU-145 cells; DU-145 cells): as active as the native hormone
Proliferation index (Mean ± SEM) (LNCaP cells; 20 nM): 95.4 ± 2.4
Proliferation index (Mean ± SEM) (LNCaP cells; 100 nM): 73.1 ± 9.5
Plasma Calcium ([1]; 14 ng/day in diet): 10.25 ± 0.33 mg/dL
Plasma Calcium ([1]; 70 ng/day in diet): 10.12 ± 0.30 mg/dL
Plasma Calcium ([1]; 350 ng/day in diet): 10.72 ± 0.33^d mg/dl
hypercalcemia ([1]; alone at 70 ng/day): not accompanied by a physiologically significant increase in hypercalcemia
colon Cyp24 response relative to the equimolar dose of 1,25-D3 (Cyp24; 12 pmol per os): about 20 times
increase in Cyp24 expression in the colon (Cyp24; 12 pmol per os): 60 fold
increase in Cyp24 in the colon over control mice (Cyp24; 24 pmol per os): about 700 fold
increase in Cyp24 expression in the colon (Cyp24; 48 pmol per os): > 400 fold
Plasma Calcium Mean ± SD ([2]; 14 ng/day continuous s.c. infusion): 10.63 ± 0.20
increase in plasma calcium ([2]; 70 ng/day): no increase in plasma calcium
Plasma Calcium Mean ± SD ([2]; 70 ng/day continuous s.c. infusion): 10.71 ± 0.15
Plasma Calcium Mean ± SD ([2]; 250 ng/day continuous s.c. infusion): 11.02 ± 0.49
Plasma Calcium Mean ± SD ([2]; 350 ng/day continuous s.c. infusion): 11.00 ± 0.25
symptoms of hypercalcemia (feed intake) ([2]; 500 ng/day): no evidence of a reduction in feed intake or other symptoms
Plasma Calcium Mean ± SD ([2]; 500 ng/day continuous s.c. infusion): 11.33 ± 0.38
lowest dose inducing a statistically significant increase in plasma calcium levels ([2]; continuous s.c. infusion): 250 ng/day
Significantly greater than control? Duncan's Multiple Range Test ([2]; 250 ng/day): Yes
Significantly greater than control? Duncan's Multiple Range Test ([2]; 350 ng/day): Yes
Significantly greater than control? Duncan's Multiple Range Test ([2]; 500 ng/day): Yes
hypercalcemic effect, fold less than the native hormone ([2]; versus 1,25-D3): at least 4 fold
